Source: PMC5597121, “The human bitter taste receptor T2R38 is broadly tuned for bacterial compounds” (PLoS ONE, 2017)
Substitutions are numbered along the chain they refer to. Where “and” joins values, the source holds several entries; their conditions need not be identical. Identical values can stand only once. Entries after “also recorded” stand apart in the source; their conditions may differ. Positions of bridges follow the written chain, without caps; N, C: chain ends. Residues, ends and D or L forms follow the SMILES beside them.

What was measured:
[1] = target: T1, T2R38 (Homo sapiens, UniProt P59533, A49P/I296V); assay: Single cell calcium imaging, Peakrapid cells (Gα16gustducin44) transiently transfected with T2R38; assay type: cell-based
T1 construct: leader: first 45 amino acids of rat somatostatin receptor subtype 3 (SSTR3) (N); expressed in transfected cells; host or cells: Peakrapid cells (HEK293 derivative, ATCC CRL-2828) stably expressing Galpha16gustducin44, co-transfected with human RTP4
T1 sequence (P59533 1-333 A49P/I296V): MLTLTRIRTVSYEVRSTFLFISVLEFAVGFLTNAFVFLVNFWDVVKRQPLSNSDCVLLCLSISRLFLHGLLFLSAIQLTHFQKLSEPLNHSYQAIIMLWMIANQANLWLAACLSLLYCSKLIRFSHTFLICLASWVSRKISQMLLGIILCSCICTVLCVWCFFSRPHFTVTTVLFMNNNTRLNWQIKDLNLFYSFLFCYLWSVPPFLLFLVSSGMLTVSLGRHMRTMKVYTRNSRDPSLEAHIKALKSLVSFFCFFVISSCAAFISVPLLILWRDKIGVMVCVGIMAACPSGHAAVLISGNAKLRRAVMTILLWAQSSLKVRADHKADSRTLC
Method in brief: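 HEK293-derived Peakrapid cells stably expressing Gα16gustducin44 were transiently co-transfected with T2R38 (PAV or AVI variant) plus RTP4, then loaded with Fluo4 40 h later. Calcium responses were imaged 1/s for 30 s after ligand injection. Responding-cell surface was normalized to 0.1 mM PTC, with EC50 from four-parameter fits; testing began at 100 mM.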

[2] = Solubility in aqueous / buffer solution; assay type: physicochemical
Protocol: 32 volatile metabolites of pathogens (S1 Fig) were selected from the literature. All compounds were dissolved in buffer solution, except C4HSL dissolved in buffer solution, DMSO or ethanol, C12HSL dissolved in DMSO or ethanol, and Agr D1 thiolactone dissolved in DMSO.

[3] = test system: mock transfected cells (empty vector); assay: Single cell calcium imaging, control: mock transfected (empty vector) Peakrapid cells; assay type: cell-based, human
Method in brief: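 Peakrapid cells stably expressing Gα16gustducin44 were transfected with empty vector plus RTP4, loaded with Fluo4 40 h later for 1 h at 37°C, and ligand was injected during 30 s imaging. The responding-cell surface fraction was normalized to 0.1 mM PTC activation. EC50 came from a four-parameter logistic fit.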

[4] = target: T2, T2R38 AVI (Homo sapiens, UniProt P59533, A262V); assay: Single cell calcium imaging, control: cells transfected with nonfunctional allele (AVI) of T2R38; assay type: cell-based; conditions: T2R38 AVI; individual values of experiments 1-5; listed as méthylmercaptan
T2 construct: leader: first 45 amino acids of rat somatostatin receptor subtype 3 (SSTR3) (N); expressed in transfected cells; host or cells: Peakrapid cells (HEK293 derivative, ATCC CRL-2828) stably expressing Galpha16gustducin44, co-transfected with human RTP4
T2 sequence (P59533 1-333 A262V): T1 sequence (P59533 1-333 A49P/I296V) with P49A, A262V, V296I
Protocol: The coding sequences of either the functional (PAV, GenBank accession number AY258597.1) and non-functional (AVI, GenBank accession number AF494231.1) were amplified from human genomic DNA by polymerase chain reaction.
The Peakrapid cell line expressing stably a chimeric Gα16gustducin44 G protein [21] was used. 40 000 cells were seeded in each well of a black/clear poly-D-lysine cellware pre-coated 96-well plate (Biocoat®, Becton-Dickinson, Erembodegem, Belgium) and transiently transfected with 50 ng of plasmid DNA containing the receptor sequence or not (empty vector) and with 50 ng of chaperone protein RTP4 per well. Forty hours after transfection, cells were incubated with the calcium-sensitive dye Fluo4 (Life Technologies, Oregon, USA) solubilized at 10 μg/ml in a buffer containing EMEM (150 mM NaCl, 5 mM KCl, 2 mM CaCl2, 1.2 mM MgCl2, 10 mM glucose), 10 mM HEPES, 0.01% (v/v) Pluronic F127, 0.1% (w/v) bovine serum albumin. After 1 h incubation at 37°C, cells were rinsed twice with the same buffer without Fluo4 and left in 50 μl buffer (prior ligand injection). Measurement were performed on a platform based on a motorized Axiobserver Z1 fluorescence microscope piloted by a Axiovision software (Zeiss, Jena, Germany) as described previously. For each selected well, images were taken 1 per second, during 30 seconds. 50 μl of the buffer containing the ligand twice concentrated was injected on the 2nd second of the time lapse record.
After time lapse record, the number of responding cells in each injected well was determined using ImageJ 1.34 (Rasband, W.S., ImageJ, National Institutes of Health, Bethesda, Maryland, USA, http://rsb.info.nih.gov/ij/1997-2004), and expressed as the percentage of the surface of a microscope field covered by activated cells with respect to the total surface of the field covered by confluent cells. Automated determination of the surface occupied by responding cells is easier to perform than a cell counting. The resulting percentage of positive surface provided a convenient estimation of the percentage of responding cells, as observed by comparing the percentage of positive surface and percentage of responsive cells determined by direct counting, in the same experiment. In agreement with the literature, the percentage of responding cells was proportional to the agonist concentration. During experiment in each plate, at least 2 wells were tested with phenylthiocarbamide (PTC) at 0.1 mM, which is one of the best characterized agonist of T2R38 in the literature. The activation of T2R38 by PTC allows normalization of the result of other tested molecules. The results were thus expressed as the percentage of PTC activation. In scaling calcium imaging assays using this latter receptor, concentration-responses curves were performed and data were fitted to a four parameter logistic equation: y=min+ (max− min)/1+10 ^(logEC50−x)nH . Min and max are the minimum and the maximum values of the percentage of cell-activated surface respectively, y is the percentage of cell-activated surface at the x concentration and nH is the Hill coefficient.

Compound	agonist activity on T2R38 (in words) [1]	specific activation of T2R38 ([1]; 0.1 mM solubilized in 0.3% DMSO)	solubility [2]	response of T2R38 transfected cells (S6_fig raw data) ([1]; CSP-1 0.5 mM, T2R38, individual values of experiments 1-3)	response of T2R38 PAV transfected cells (S7_fig raw data) ([1]; T2R38 PAV, individual values of experiments 1-5, listed as méthylmercaptan)	EC50 ([1]; concentration-response curve, read-out: EC50)	logEC50 ([1]; given in the concentration-response curve)	percentage of surface covered by activated cells ([1]; méthylmercaptan 0.000630957, log10[ ] -3.2)	percentage of surface covered by activated cells ([1]; méthylmercaptan 0.00439285, log10[ ] -2.35725)	Emax (% of positive control) ([1]; percentage of the response elicited by 0.1 mM PTC)	percentage of surface covered by activated cells ([3]; méthylmercaptan 0.0075, log10[ ] -2.12494)	percentage of surface covered by activated cells ([3]; méthylmercaptan 0.01, log10[ ] -2)	response of T2R38 AVI transfected cells (S7_fig raw data) [4]
CC[C@H](C)[C@@H]1NC(=O)[C@H](Cc2ccccc2)NC(=O)[C@H](CC(=O)O)NC(=O)[C@@H](NC(=O)[C@@H](NC(=O)[C@H](CO)NC(=O)[C@@H](N)Cc2ccc(O)cc2)[C@@H](C)O)CSC(=O)[C@H](CCSC)NC1=O [Agr D1 thiolactone] (H-YSTCDFIM; thioester 4-C; N-terminus assumed)	inactive	did not show specific activation; also recorded: did not activate T2R38	not soluble in aqueous solution										
CC[C@H](C)[C@H](NC(=O)[C@H](Cc1ccccc1)NC(=O)[C@H](CC(=O)O)NC(=O)[C@H](CCCNC(=N)N)NC(=O)[C@H](Cc1ccccc1)NC(=O)[C@H](Cc1ccccc1)NC(=O)[C@H](CCCCN)NC(=O)[C@H](CO)NC(=O)[C@H](CC(C)C)NC(=O)[C@H](CCCNC(=N)N)NC(=O)[C@H](CCSC)NC(=O)[C@@H](N)CCC(=O)O)C(=O)N[C@@H](CC(C)C)C(=O)N[C@@H](CCC(N)=O)C(=O)N[C@@H](CCCNC(=N)N)C(=O)N[C@@H](CCCCN)C(=O)N[C@@H](CCCCN)C(=O)O [CSP-1]	inactive		soluble at 0.5 mM in the buffer solution	37.13% and 3.20% and 100.83%									
CS [methylmercaptan]	able to specifically trigger this receptor				3.25% and 3.44% and 8% and 6% and 6.36% and 5% and 1.09% and 2.8% and 3.57% and 1.72% and 3% and 1.56% and 5.64% and 4.55%	8 mM	-2.07	0.11% and 0.07% and 0.29% and 0.31% and 0.27% and 0.54% and 0.96% and 0.62%	0.81% and 0.87% and 0.46% and 0.37% and 1.33% and 0.26% and 1.05% and 0.97%	31 % of positive control	0.35% and 0.33% and 0.26% and 0.19% and 1.74% and 0.81% and 0.76%	0.36% and 0.09% and 0.12% and 0.53% and 2.03% and 0.10% and 0.15% and 0.34%	0.549% and 0.185% and 0.235% and 0.0265% and 0.511% and 0.151% and 0.286% and 0.362% and 1.77% and 0.619% and 1.26% and 0.598% and 0.172% and 0.165%
